Data as given in ChEMBL document CHEMBL1148009, “Synthesis of amphiphilic galactopyranosyl diamines and amino alcohols as antitubercular agents” (2007).
In brackets after ≈: the same amount, converted by molar mass.

What follows are compounds tested on Mycobacterium tuberculosis (assay: Antitubercular activity against Mycobacterium tuberculosis H37Rv).
Type: functional

Row | SMILES | MIC [µg/mL]
1 | CC1(C)O[C@H]2[C@@H](O1)[C@@H](CNCCCN)O[C@@H]1OC(C)(C)O[C@@H]12 | > 50
2 | CCCCCCCCCCCCCCCCCC(=O)NCCCNC[C@H]1O[C@@H]2OC(C)(C)O[C@@H]2[C@H]2OC(C)(C)O[C@H]21 | 12.5 (≈ 21.4 µM)
3 | CCCCCCCCCCCCCCCCCC(=O)NCCN(C[C@H]1OC(O)[C@H](O)[C@@H](O)[C@H]1O)C(=O)CCCCCCCCCCCCCCCCC (stereo partly specified) | > 50
4 | CCCCCCCCCCCCCCCCCC(=O)NCCCN(C[C@H]1OC(O)[C@H](O)[C@@H](O)[C@H]1O)C(=O)CCCCCCCCCCCCCCCCC (stereo partly specified) | > 50
5 | CCCCCCCCCCCCCCCCCC(=O)N(CCO)C[C@H]1O[C@@H]2OC(C)(C)O[C@@H]2[C@H]2OC(C)(C)O[C@H]21 | 25 (≈ 43.9 µM)
6 | CO[C@H]1/C=C/O[C@@]2(C)Oc3c(C)c(O)c4c(O)c(c(/C=N/N5CCN(C)CC5)c(O)c4c3C2=O)NC(=O)/C(C)=C\C=C\[C@H](C)[C@H](O)[C@@H](C)[C@@H](O)[C@@H](C)[C@H](OC(C)=O)[C@@H]1C [RIFAMPIN] | 1 (≈ 1.22 µM)
7 | CCCCCCCCCCCCCCCC(=O)NCCN(C[C@H]1O[C@@H]2OC(C)(C)O[C@@H]2[C@H]2OC(C)(C)O[C@H]21)C(=O)CCCCCCCCCCCCCCC | > 50
8 | CCCCCCCCCCCCCCCCCC(=O)NCCNC[C@H]1O[C@@H]2OC(C)(C)O[C@@H]2[C@H]2OC(C)(C)O[C@H]21 | < 3.12
9 | CCCCCCCCCCCCCCCC(=O)NCCCN(C[C@H]1O[C@@H]2OC(C)(C)O[C@@H]2[C@H]2OC(C)(C)O[C@H]21)C(=O)CCCCCCCCCCCCCCC | > 50
10 | CC1(C)O[C@H]2[C@@H](O1)[C@@H](CNCCO)O[C@@H]1OC(C)(C)O[C@@H]12 | > 50
11 | CCCCCCCCCCCCCCCCCC(=O)OCCN(C[C@H]1O[C@@H]2OC(C)(C)O[C@@H]2[C@H]2OC(C)(C)O[C@H]21)C(=O)CCCCCCCCCCCCCCCCC | > 50
